Assay [1] is described as follows: blockers of CAL PDZ–TMR peptide complex – biochemical, fluorescence polarization, untagged CAL PDZ, cherry-pick, set 2, dose response (AID 602254). Type of assay: functional. For orientation: Fluorescence polarisation rises when a labelled molecule tumbles more slowly, as on binding a larger partner.
Assay [2] deals with Serine/threonine-protein phosphatase (Candida dubliniensis (strain CD36 / CBS 7987 / NCPF 3949 / NRRLY-17841) (Yeast), UniProt B9W6M3). Briefly: blockers of CaCl2-induced CDRE-lacZ signaling – S. cerevisiae, luminescence, secondary, dose response (AID 2388).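 Also: yeast reporter cells carrying a calcineurin-responsive lacZ construct stimulated with calcium chloride; luminescent beta-galactosidase reporter signal in whole cells rather than isolated phosphatase activity; potency for inhibition where a drop in reporter signal means calcineurin blockade.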 Type of assay: functional, cell-based.
For assay [3], the target named is ATP-dependent molecular chaperone HSP82 (Candida albicans (strain WO-1) (Yeast), UniProt C4YTQ8). In words: steroid-induced GRE reporter decrease in yeast – S. cerevisiae, luminescence, Hsp90 inhibitor project, dose response (AID 2400).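 Also: beta-galactosidase luminescence from glucocorticoid response element reporter as proxy for Hsp90 function; inhibitor potency where signal loss means Hsp90 inhibition.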 The format is functional, cell-based.
A short description of assay [4]: NIH-3T3 fibroblast cytotoxicity, dose response, cytotoxicity control, cell-based, fluorescence, Alamar Blue, secondary assay (AID 2327).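 Also: NIH-3T3 mouse fibroblasts cultured with fluconazole at 8 µg/mL.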 Type of assay: functional. (Resazurin is reduced to fluorescent resorufin, in cell work by metabolically active cells.)
The nature of assay [5]: fluconazole-exposed Candida albicans growth modulators – fluorescence, retest, confirmation (AID 2467). Type of assay: functional, cell-based.
Another assay has as its target Phospholipase D2 (Homo sapiens, UniProt O14939). In words: cellular phospholipase D2 inhibition IC50 – cell-based, dose response (AID 602147).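 Also: cellular assay in HEK293 cells overexpressing GFP-tagged PLD2.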 Type of assay: functional.
A further assay has as its target Phospholipase D1 (Homo sapiens, UniProt Q13393). In words: cellular phospholipase D1 inhibition IC50 – cell-based, dose response (AID 602151).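 Also: cellular PLD1 assay in Calu-1 cells stimulated with PMA.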 The format is functional.
The test system of assay [6] is BJ. Briefly: cells. Type of assay: functional, cell-based. Particulars: Homo sapiens.
Assay [7] in a line: Luminescence Cell-Based Dose Confirmation HTS to Identify Inhibitors of Platelet Dense Granule Release. [Related pubchem assays: 1663 (Primary HTS), 1678 (Summary of Project)]. Type of assay: functional.
In assay [8] the test system is BJ. In words: BJ-TERT-LT-ST fibroblast viability loss – cell-based, RAS-independent, luminescence, dose response (AID 1935).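 Also: BJ fibroblasts immortalized with TERT plus LT and ST oncogenes.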 Type of assay: functional. The following applies: Homo sapiens.
Assay [9] relates to BJ. Briefly: BJ-TERT fibroblast viability loss – cell-based, RAS-independent, luminescence, dose response (AID 1933). Type of assay: functional. Particulars: Homo sapiens.
The target of assay [10] is Luciferin 4-monooxygenase (Photinus pyralis, UniProt P08659). Briefly: inhibition of purified Photinus pyralis luciferase – biochemical, luminescence, dose response (AID 1891).
Assay [11] has as its system BJ. Briefly: growth inhibition of engineered Ras-driven BJ cells – cell-based, alamar blue fluorescence, cherrypicked samples, dose response (AID 2631).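 Also: confirmatory dose-response assay in RAS-dependent BJ fibroblasts engineered with TERT, LT and ST, with cytotoxicity read by fluorescence.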 The format is functional. Particulars: Homo sapiens.
Assay [12] can be described thus: DRD fibroblast viability loss – cell-based, non-viral oncogenic, luminescence, dose response (AID 1934). Type of assay: functional. The following applies: Homo sapiens.
For a further assay, the target named is Melanocortin receptor 4 (Homo sapiens, UniProt P32245). Briefly: inhibitors of MC4R cAMP signaling – cell-based, TR-FRET, biased antagonists, dose response (AID 602298).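 Also: antagonist potency against agonist-stimulated cAMP production.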 The format is functional.
Assay [13] in a line: cAMP pathway inhibition in counterscreen cell line – TR-FRET cAMP detection, counter-screen for MC4R biased antagonist project, dose response (AID 602305).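 Also: U2OS cells stimulated with forskolin near its EC80 as the cAMP inducer; potency is for inhibition of forskolin-stimulated cAMP signaling.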 Type of assay: functional, cell-based. Background: The purpose of a counterscreen is to sort out artefacts and off-target activity.

The structures appear in SMILES notation. Activity calls are given as the source filed them. Rule as the data show it, for most assays here: actives have a measured EC50 and inactives only a lower limit. A value given as a limit tells only on which side of the number the result lay.

Sequence of Luciferin 4-monooxygenase (P08659 whole entry): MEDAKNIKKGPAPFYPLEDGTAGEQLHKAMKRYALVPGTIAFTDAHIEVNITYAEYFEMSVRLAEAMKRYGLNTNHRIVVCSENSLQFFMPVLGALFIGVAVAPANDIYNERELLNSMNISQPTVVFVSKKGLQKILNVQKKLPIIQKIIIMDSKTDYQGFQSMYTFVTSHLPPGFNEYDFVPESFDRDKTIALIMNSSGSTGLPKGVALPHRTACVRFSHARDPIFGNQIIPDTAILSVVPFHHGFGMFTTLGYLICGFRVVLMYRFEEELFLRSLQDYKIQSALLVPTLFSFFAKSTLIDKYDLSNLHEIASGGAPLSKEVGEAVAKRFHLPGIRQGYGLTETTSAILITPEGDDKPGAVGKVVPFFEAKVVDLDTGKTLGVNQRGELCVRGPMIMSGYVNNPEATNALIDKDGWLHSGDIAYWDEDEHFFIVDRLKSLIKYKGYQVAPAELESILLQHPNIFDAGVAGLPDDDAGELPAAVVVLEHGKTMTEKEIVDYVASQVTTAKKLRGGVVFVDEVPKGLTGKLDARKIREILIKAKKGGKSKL
Sequence of Phospholipase D1 (Q13393 whole entry): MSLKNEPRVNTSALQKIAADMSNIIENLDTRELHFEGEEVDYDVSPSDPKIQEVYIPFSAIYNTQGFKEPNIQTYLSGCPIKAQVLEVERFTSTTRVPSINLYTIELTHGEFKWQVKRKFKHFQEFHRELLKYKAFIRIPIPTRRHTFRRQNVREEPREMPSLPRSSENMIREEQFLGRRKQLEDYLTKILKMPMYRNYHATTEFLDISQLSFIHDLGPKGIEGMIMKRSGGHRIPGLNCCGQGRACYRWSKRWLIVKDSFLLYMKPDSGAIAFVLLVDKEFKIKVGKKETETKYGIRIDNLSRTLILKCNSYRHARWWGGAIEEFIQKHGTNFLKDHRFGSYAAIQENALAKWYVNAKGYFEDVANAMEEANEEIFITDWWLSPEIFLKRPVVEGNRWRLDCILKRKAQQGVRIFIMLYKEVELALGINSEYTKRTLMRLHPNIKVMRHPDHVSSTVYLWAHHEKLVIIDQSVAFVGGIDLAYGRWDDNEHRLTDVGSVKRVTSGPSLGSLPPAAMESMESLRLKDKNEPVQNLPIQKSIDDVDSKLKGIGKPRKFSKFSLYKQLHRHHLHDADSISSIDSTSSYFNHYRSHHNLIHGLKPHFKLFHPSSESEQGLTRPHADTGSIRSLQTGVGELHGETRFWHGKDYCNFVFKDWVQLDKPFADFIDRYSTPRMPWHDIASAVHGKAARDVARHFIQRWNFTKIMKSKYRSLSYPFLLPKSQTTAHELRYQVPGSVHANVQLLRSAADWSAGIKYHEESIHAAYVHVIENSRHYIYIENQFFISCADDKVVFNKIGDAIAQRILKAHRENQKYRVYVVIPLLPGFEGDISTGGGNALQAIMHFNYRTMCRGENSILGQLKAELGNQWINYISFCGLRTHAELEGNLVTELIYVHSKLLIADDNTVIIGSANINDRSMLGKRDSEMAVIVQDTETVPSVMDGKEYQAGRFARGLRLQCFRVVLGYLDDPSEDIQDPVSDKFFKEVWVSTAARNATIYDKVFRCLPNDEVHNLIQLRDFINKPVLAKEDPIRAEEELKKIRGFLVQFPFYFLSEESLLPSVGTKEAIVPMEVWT
Sequence of Melanocortin receptor 4 (P32245 whole entry): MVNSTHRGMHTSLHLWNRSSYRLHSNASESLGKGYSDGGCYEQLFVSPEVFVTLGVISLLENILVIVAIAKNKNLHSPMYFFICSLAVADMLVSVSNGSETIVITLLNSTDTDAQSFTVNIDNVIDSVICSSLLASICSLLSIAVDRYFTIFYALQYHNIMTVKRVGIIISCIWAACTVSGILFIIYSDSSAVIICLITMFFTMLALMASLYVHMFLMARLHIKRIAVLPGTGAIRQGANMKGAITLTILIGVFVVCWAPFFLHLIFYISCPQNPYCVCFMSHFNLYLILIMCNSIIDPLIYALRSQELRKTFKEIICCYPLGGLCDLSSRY
Sequence of Serine/threonine-protein phosphatase (B9W6M3 whole entry): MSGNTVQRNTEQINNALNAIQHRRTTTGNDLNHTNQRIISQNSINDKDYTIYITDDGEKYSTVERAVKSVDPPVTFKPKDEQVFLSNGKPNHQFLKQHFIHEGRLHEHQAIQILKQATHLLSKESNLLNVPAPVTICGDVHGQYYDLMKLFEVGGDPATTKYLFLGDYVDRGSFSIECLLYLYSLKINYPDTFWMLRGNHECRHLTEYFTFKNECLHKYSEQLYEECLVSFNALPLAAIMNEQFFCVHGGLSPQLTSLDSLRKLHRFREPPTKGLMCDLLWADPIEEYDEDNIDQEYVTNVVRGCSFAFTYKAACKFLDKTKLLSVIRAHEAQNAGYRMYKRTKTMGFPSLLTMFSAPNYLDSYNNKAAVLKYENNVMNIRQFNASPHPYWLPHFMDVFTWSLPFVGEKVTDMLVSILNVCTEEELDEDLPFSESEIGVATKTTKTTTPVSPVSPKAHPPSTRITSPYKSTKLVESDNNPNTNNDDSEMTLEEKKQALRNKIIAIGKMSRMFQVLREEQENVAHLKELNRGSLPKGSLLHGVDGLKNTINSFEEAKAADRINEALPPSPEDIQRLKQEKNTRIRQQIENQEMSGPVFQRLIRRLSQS
Sequence of ATP-dependent molecular chaperone HSP82 (C4YTQ8 whole entry): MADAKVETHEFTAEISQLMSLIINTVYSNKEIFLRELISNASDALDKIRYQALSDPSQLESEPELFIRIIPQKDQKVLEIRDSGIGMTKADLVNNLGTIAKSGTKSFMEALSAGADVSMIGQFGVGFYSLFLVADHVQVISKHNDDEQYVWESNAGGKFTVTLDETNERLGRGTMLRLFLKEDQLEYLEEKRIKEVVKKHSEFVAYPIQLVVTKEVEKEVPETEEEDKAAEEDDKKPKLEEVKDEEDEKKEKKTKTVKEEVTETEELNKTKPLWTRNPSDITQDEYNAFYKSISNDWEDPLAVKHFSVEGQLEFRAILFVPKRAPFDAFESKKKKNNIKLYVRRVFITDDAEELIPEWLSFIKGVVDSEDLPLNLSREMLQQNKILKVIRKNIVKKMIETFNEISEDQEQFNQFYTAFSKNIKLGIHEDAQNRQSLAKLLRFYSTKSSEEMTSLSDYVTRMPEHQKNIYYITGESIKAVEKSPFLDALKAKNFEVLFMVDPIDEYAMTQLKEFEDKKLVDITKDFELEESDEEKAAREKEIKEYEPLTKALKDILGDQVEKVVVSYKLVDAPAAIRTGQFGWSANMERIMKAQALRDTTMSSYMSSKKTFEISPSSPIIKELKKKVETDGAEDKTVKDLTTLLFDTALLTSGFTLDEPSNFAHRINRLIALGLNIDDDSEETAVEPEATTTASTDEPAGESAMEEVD
Sequence of Phospholipase D2 (O14939 whole entry): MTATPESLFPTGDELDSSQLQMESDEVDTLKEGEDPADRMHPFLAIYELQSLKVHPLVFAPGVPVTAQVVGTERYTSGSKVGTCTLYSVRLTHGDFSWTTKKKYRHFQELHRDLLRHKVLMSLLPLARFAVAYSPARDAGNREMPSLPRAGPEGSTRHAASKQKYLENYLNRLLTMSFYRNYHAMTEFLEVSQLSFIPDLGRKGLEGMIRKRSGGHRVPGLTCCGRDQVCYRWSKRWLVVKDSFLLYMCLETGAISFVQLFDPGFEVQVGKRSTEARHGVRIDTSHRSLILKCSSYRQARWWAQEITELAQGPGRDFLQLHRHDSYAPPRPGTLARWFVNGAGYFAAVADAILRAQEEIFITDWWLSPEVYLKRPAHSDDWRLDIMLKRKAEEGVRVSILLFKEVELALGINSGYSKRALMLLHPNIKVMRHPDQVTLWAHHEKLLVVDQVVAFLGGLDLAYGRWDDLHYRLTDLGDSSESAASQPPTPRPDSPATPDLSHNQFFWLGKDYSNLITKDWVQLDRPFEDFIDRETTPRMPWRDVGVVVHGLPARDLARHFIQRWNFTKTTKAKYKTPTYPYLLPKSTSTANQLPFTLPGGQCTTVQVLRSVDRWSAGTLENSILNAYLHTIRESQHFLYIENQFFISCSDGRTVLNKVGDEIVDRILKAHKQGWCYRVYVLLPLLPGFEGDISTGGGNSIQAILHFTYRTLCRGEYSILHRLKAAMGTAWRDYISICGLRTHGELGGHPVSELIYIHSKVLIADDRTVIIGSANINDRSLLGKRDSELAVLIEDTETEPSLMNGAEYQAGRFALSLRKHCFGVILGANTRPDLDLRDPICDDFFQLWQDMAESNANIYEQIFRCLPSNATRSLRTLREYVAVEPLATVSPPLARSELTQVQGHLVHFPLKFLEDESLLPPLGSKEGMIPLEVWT

Consider `COCCSc1nnc(NC(=O)Cc2ccc(OC)cc2)s1`, for which, in assay [1], the AC50 was 101 µM (active).

On to `COc1ccc(N(CC(=O)Nc2ccccc2C(N)=O)S(=O)(=O)c2ccc(C)c([N+](=O)[O-])c2)cc1`, for which the EC50 in assay [2] was > 180 µM (inactive); in assay [3], > 160 µM (inactive); in assay [4], > 150 µM (inactive); in assay [5], 0.095 µM (active).

For the compound `CC(C)[C@@H](CN1CCC(n2c(=O)[nH]c3ccccc32)CC1)NC(=O)c1ccc2ccccc2c1`, the figures for the IC50 on Phospholipase D2 and on Phospholipase D1 were 20 µM (active) and 5.6 µM (active), respectively.

On to `COc1cccc(C(=O)Nc2ccc(N3CCCC3)cc2)c1`, for which the EC50 in the assay with BJ [6] was 3.26 µM (active); in [7], 1.2 µM (active); in the assay with BJ [8], 13.8 µM (active); in the assay with BJ [9] it was 9.4 µM (active); in assay [10] it was 0.856 µM (active); in the assay with BJ [11], 86.1 µM (active). Also, the EC50 in assay [12] is 4.29 µM (active).

Turning to `C=C1C(=O)O[C@@H]2C[C@@H](C)[C@H]3C=CC(=O)[C@]3(O)C[C@@H]12`, the EC50 in the assay with BJ [11] is 3.09 µM (active).

On to `CSCCC(NC(=O)c1cccc(C)c1)C(=O)OCN1C(=O)c2ccccc2C1=O` (configuration not stated), for which the IC50 on Melanocortin receptor 4 is > 21.5 µM (inactive); in [13] it was > 64.6 µM (inactive).

By AC50 is commonly meant the concentration giving half of the maximal activity seen. One may read the EC50 as the concentration giving half of the maximal effect. As a reminder, the IC50 is the concentration that inhibits the measured activity by half.

These data come from ChEMBL document CHEMBL1201862, “PubChem BioAssay data set” (2004).
